Data reported in the RepoRT retention time repository (doi:10.1007/s11306-011-0298-z).
Where a name gives a salt, the structure may show the parent alone.

Experiment: RP, Waters ACQUITY UPLC HSS T3, 100 × 2.1 mm, 1.8 µm, 30 °C, 0.3 mL/min, estimated dead time 0.73 min; A: water + 0.1% formic acid, pH 3; B: methanol + 0.1% formic acid, pH 3; gradient (min/%B) 0/0 6/0 56/100 60/100
Conditions: stereoisomer not certain

| SMILES | LC retention time |
| --- | --- |
| O=C(O)C(=O)O [oxalic acid] | 1.3 min |
| O=C(O)/C=C/c1ccc(O)cc1 [p-coumaric acid] | 24.3 min |
| CCCCCCCCCCCCCCCC(=O)O [palmitic acid] | 54.4 min |
| NCCc1ccccc1 [phenethylamine] | 12.1 min |
| COC1C(O)C(O)C(O)C(O)C1O (configuration not stated) [pinitol] | 1.41 min |
| O=C(O)C1CNCCN1 (configuration not stated) [piperazine carboxylic acid] | 1.19 min |
| C1CCNCC1 [piperidine hydrochloride] | 2.5 min |
| O=C(C=CC=Cc1ccc2c(c1)OCO2)N1CCCCC1 [piperine] | 40.7 min |
| O=C(O)c1ccc2c(c1)OCO2 [piperonylic acid] | 26.7 min |
| CCCN [propylamine] | 1.5 min |
| O=C(O)c1ccc(O)c(O)c1 [protocatechuic acid] | 13.9 min |
| COc1cc(C=Cc2ccc(O)cc2)cc(OC)c1 [pterostilbene] | 41.4 min |
| Cc1ncc(COP(=O)(O)O)c(C=O)c1O [pyridoxal 5-phosphate] | 3.99 min |
| Cc1ncc(CO)c(C=O)c1O [pyridoxal] | 3.77 min |
| Cc1ncc(COP(=O)(O)O)c(CN)c1O [pyridoxamine 5-phosphate] | 1.41 min |
| Cc1ncc(CO)c(CN)c1O [pyridoxamine] | 1.42 min |
| Cc1ncc(CO)c(CO)c1O [pyridoxine] | 4.9 min |
| Oc1ccccc1O [pyrocatechol] | 13 min |
| C1CCNC1 [pyrrolidine] | 1.5 min |
| CC(=O)C(=O)O [pyruvic acid] | 1.79 min |
| O=C(O)C1(O)CC(O)C(O)C(O)C1 (configuration not stated) [quinic acid] | 1.6 min |
| OCC1OC(OCC2OC(OC3(CO)OC(CO)C(O)C3O)C(O)C(O)C2O)C(O)C(O)C1O (configuration not stated) [raffinose] | 2.6 min |
| CC1OC(O)C(O)C(O)C1O (configuration not stated) [rhamnose] | 1.57 min |
| Cc1cc2nc3c(=O)[nH]c(=O)nc-3n(CC(O)C(O)C(O)CO)c2cc1C (configuration not stated) [riboflavin] | 23.9 min |
| CC1OC(OCC2OC(Oc3c(-c4ccc(O)cc4)oc4cc(OC5OC(C)C(O)C(O)C5O)cc(O)c4c3=O)C(O)C(O)C2O)C(O)C(O)C1O (configuration not stated) [robinin] | 28.6 min |
| O=C(C=Cc1ccc(O)c(O)c1)OC(Cc1ccc(O)c(O)c1)C(=O)O (configuration not stated) [rosmarinic acid] | 30 min |

| SMILES | LC retention time |
| --- | --- |
| COc1cc(O)c2c(c1)OC(c1ccc(O)cc1)CC2=O (configuration not stated) [sakuranetin] | 39 min |
| O=C(O)c1ccccc1O [salicylic acid] | 26.4 min |
| C=CC(C)(O)CCC1C(C)(O)CCC2C(C)(C)CCCC21C (configuration not stated) [sclareol] | 50.1 min |
| COc1cc2ccc(=O)oc2cc1O [scopoletin] | 24.6 min |
| NCCc1c[nH]c2ccc(O)cc12 [serotonin] | 11.1 min |
| COc1cc(/C=C/C(=O)O)cc(OC)c1O [sinapic acid] | 25.9 min |
| COc1cc(/C=C/CO)cc(OC)c1O [sinapyl alcohol] | 23.6 min |
| COc1ccc(-c2cc(=O)c3c(OC)c(OC)c(OC)cc3o2)cc1OC [sinensetin] | 39.3 min |
| CC=CC=CC(=O)O [sorbic acid] | 25.1 min |
| NCCCCNCCCN [spermidine] | 1.04 min |
| NCCCNCCCCNCCCN [spermine] | 0.98 min |
| OCC1OC(OCC2OC(OCC3OC(OC4(CO)OC(CO)C(O)C4O)C(O)C(O)C3O)C(O)C(O)C2O)C(O)C(O)C1O (configuration not stated) [stachyose] | 2.4 min |
| O=C(O)CCC(=O)O [succinic acid] | 4.97 min |
| OCC1OC(OC2(CO)OC(CO)C(O)C2O)C(O)C(O)C1O (configuration not stated) [sucrose] | 1.9 min |
| COc1cc(C=NN=Cc2cc(OC)c(O)c(OC)c2)cc(OC)c1O [syringaldazine] | 35.5 min |
| COc1cc(C=O)cc(OC)c1O [syringaldehyde] | 23.5 min |
| COc1cc(C(=O)O)cc(OC)c1O [syringic acid] | 21.9 min |
| CC(CCC(=O)NCCS(=O)(=O)O)C1CCC2C3C(O)CC4CC(O)CCC4(C)C3CC(O)C12C (configuration not stated) [taurocholic acid] | 42.3 min |
| CC(C)(C)c1cc(O)ccc1O [tert-butylhydroquinone] | 30.5 min |
| Cn1cnc2c1c(=O)[nH]c(=O)n2C [theobromine] | 15.3 min |
| Cn1c(=O)c2[nH]cnc2n(C)c1=O [theophylline] | 17.8 min |
| Cc1ncc(C[n+]2csc(CCO)c2C)c(N)n1 [thiamine] | 1.6 min |
| O=C(O)C(O)C(O)CO (configuration not stated) [threonic acid] | 1.45 min |
| O=CC(O)C(O)CO (configuration not stated) [threose] | 1.47 min |
| O=C(C=Cc1ccc(O)cc1)OC(C(=O)O)C(O)C(=O)O (stereo not drawn) [trans coutaric acid] | 18 min |
| CC1(O)CCC(C(C)(C)O)CC1 (stereo not drawn) [trans-terpin] | 27.9 min |

Results, then the molecule that gave them:

| LC retention time | SMILES |
| --- | --- |
| 25.5 min | O=c1cc(-c2ccc(O)c(O)c2)oc2c(C3OC(CO)C(O)C(O)C3O)c(O)cc(O)c12 (configuration not stated) [orientin] |
| 33.2 min | COc1cc(-c2oc3cc(=O)cc4oc(O)cc(c2OC2OC(CO)C(O)C(O)C2O)c43)cc(OC)c1O (configuration not stated) [oxovitisin A] |
| 25.9 min | Oc1ccc(C2c3c(O)cc(O)cc3C3C(c4ccc(O)cc4)c4c(O)cc(O)cc4C23)cc1 (configuration not stated) [pallidol] |
| 19.6 min | OCC1OC(Oc2cc3c(OC4OC(CO)C(O)C(O)C4O)cc(O)cc3[o+]c2-c2ccc(O)cc2)C(O)C(O)C1O (configuration not stated) [pelargonidin-3,5-diglucoside] |
| 23.7 min | OCC1OC(Oc2cc3c(O)cc(O)cc3[o+]c2-c2ccc(O)cc2)C(O)C(O)C1O (configuration not stated) [pelargonidin-3-glucoside] |
| 28.3 min | O=c1c(OC2OC(COC3OCC(O)C(O)C3O)C(O)C(O)C2O)c(-c2ccc(O)c(O)c2)oc2cc(O)cc(O)c12 (configuration not stated) [peltatoside] |
| 20.2 min | COc1cc(-c2[o+]c3cc(O)cc(OC4OC(CO)C(O)C(O)C4O)c3cc2OC2OC(CO)C(O)C(O)C2O)ccc1O (configuration not stated) [peonidin 3,5 diglucoside] |
| 24 min | COc1cc(-c2[o+]c3cc(O)cc(O)c3cc2OC2OC(CO)C(O)C(O)C2O)ccc1O (configuration not stated) [peonidin 3-galactoside] |
| 33 min | COc1cc(-c2oc3cc(=O)cc(O)c-3cc2OC2OC(COC(=O)C=Cc3ccc(O)cc3)C(O)C(O)C2O)ccc1O (configuration not stated) [peonidin-3-O-(6-p-coumaroyl)-glucoside] |
| 24.8 min | COc1cc(-c2[o+]c3cc(O)cc(O)c3cc2OC2OCC(O)C(O)C2O)ccc1O (configuration not stated) [peonidin-3-arabinoside] |
| 22.9 min | COc1cc(-c2[o+]c3cc(O)cc(O)c3cc2OC2OC(CO)C(O)C(O)C2O)cc(O)c1O (configuration not stated) [petunidin-3-glucoside] |
| 29.7 min | COc1cc(-c2[o+]c3cc(O)cc(O)c3cc2O)cc(O)c1O [petunidin] |
| 29.6 min | O=C(CCc1ccc(O)cc1)c1c(O)cc(O)cc1OC1OC(CO)C(O)C(O)C1O (configuration not stated) [phloridzin] |
| 18.1 min | Oc1cc(O)c2c(c1)OC(c1ccc(O)c(O)c1)C(O)C2c1c(O)cc(O)c2c1OC(c1ccc(O)c(O)c1)C(O)C2 (configuration not stated) [procyanidin B1] |
| 25.2 min | Oc1cc(O)c2c(c1)OC1(c3ccc(O)c(O)c3)Oc3cc(O)c4c(c3C2C1O)OC(c1ccc(O)c(O)c1)C(O)C4 (configuration not stated) [procyanidin-A2] |
| 26.1 min | O=c1c(OC2OC(CO)C(O)C(O)C2O)c(-c2ccc(OC3OC(CO)C(O)C(O)C3O)c(O)c2)oc2cc(O)cc(O)c12 (configuration not stated) [quercetin 3,4'-diglucoside] |
| 29.1 min | O=c1c(OC2OC(C(O)CO)C(O)C2O)c(-c2ccc(O)c(O)c2)oc2cc(O)cc(O)c12 (configuration not stated) [quercetin 3-glucoside] |
| 28.4 min | O=C(O)C1OC(Oc2c(-c3ccc(O)c(O)c3)oc3cc(O)cc(O)c3c2=O)C(O)C(O)C1O (configuration not stated) [quercetin 3-glucuronide] |
| 29.1 min | CC1OC(OCC2OC(Oc3c(-c4ccc(O)c(O)c4)oc4cc(O)cc(O)c4c3=O)C(O)C(O)C2O)C(O)C(O)C1O (configuration not stated) [quercetin 3-rutinoside] |
| 27.4 min | O=c1c(OS(=O)(=O)O)c(-c2ccc(O)c(O)c2)oc2cc(O)cc(O)c12 [quercetin 3-sulfate] |
| 30.4 min | O=c1c(O)c(-c2ccc(OC3OC(CO)C(O)C(O)C3O)c(O)c2)oc2cc(O)cc(O)c12 (configuration not stated) [quercetin 4'-glucoside] |
| 31 min | CC(=O)OCC1OC(Oc2c(-c3ccc(O)c(O)c3)oc3cc(O)cc(O)c3c2=O)C(O)C(O)C1O (configuration not stated) [quercetin-3-O-glucose-6''-acetate] |
| 28.9 min | O=c1c(OC2OC(CO)C(O)C(O)C2O)c(-c2ccc(O)c(O)c2)oc2cc(O)cc(O)c12 (configuration not stated) [quercetin-3-galactoside] |
| 34 min | O=c1c(O)c(-c2ccc(O)c(O)c2)oc2cc(O)cc(O)c12 [quercetin] |
| 31.1 min | CC1OC(Oc2c(-c3ccc(O)c(O)c3)oc3cc(O)cc(O)c3c2=O)C(O)C(O)C1O (configuration not stated) [quercitrin] |
| 42.2 min | COc1cc(O)c2c(=O)c(O)c(-c3ccc(O)c(OC)c3)oc2c1 [rhamnazin] |
| 38.9 min | COc1cc(O)c2c(=O)c(O)c(-c3ccc(O)c(O)c3)oc2c1 [rhamnetin] |
| 31.6 min | COc1cc(-c2oc3cc(O)cc(O)c3c(=O)c2OC2OC(CO)C(O)C(O)C2O)cc(OC)c1O (configuration not stated) [syringetin-3-galactoside] |
| 37.4 min | COc1cc(-c2oc3cc(O)cc(O)c3c(=O)c2O)cc(OC)c1O [syringetin] |
| 25.3 min | O=C1c2c(O)cc(O)cc2OC(c2ccc(O)c(O)c2)C1O (configuration not stated) [taxifolin] |
